Measurements reported in US5316944A, “Enzymatic resolution of a racemic mixture of gamma-amino acids using penicillin acylase” (Merrell Dow Pharmaceuticals, priority 1992, dated 1994).

How the values were obtained:
penicillin acylase = penicillin acylase (Escherichia coli, UniProt P06875); experiment: penicillin acylase-catalyzed hydrolysis of N-phenylacetyl derivatives; format: biochemical, E.coli; conditions: for E: E values calculated from the yields and the ee's of the (R)-enantiomers; for Reaction rate: [S] = 50 mm, pH 7.8, 25° C.
Text: Here we report a simple procedure for the preparation of the enantiomers of γ-ethynyl GABA, γ-allenyl GABA, and γ-vinyl GABA by penicillin acylase-catalyzed hydrolysis of the corresponding N-phenylacetyl derivatives. Penicillin acylase (PA) from E.coli is used in industry for the preparation of 6-aminopenicillanic acid and semisynthetic β-lactam antibiotics (V. K. Svedas et al., Enzyme Microb. Technol., 2, 138 (1980)). PA is highly specific to phenylacetyl group and catalyzes its cleavage not only from penicillins, but also from amides, peptides, and esters (M. Cole, Biochem J., 115, 733 (1969); Ibid, 741; and, A. Czentirmai, Acta Microbiol. Acad. Sci. Hung., 12, 395 (1965/1966). The structure of the leaving group of the substrates hardly affects the rate constants of the hydrolytic reactions (M. Cole, Nature, 203, 519 (1964), and A. L. Margolin et al., Biochim. Biophys. Acta, 616, 283 (1980)). The enantioselectivity of PA was exploited in the preparation of amino acids (D. Rossi et al., Experientia, 33, 1557 (1977) and Ibid, 41, 35 (1985)), aminoalkylphosphonic acids (V. A. Solodenko et al., Tetrahedron, 47, 3989 (1991)), esters and alcohols (C. Fuganti et al., Tetrahedron Letters, 44, 2575 (1988), and H. Waldman, 30, 3057 (1989)), although the hydrolysis of an ester bond normally results in products with modest optical purity.
In a typical experiment, 0.7 g of penicillin acylase immobilized on Eupergit C, was suspended in a solution of (N-phenylacetyl)-vinyl GABA (1.0 g; 4 mmol) in 35 ml 0.1 M phosphate buffer, pH 7.8. The mixture was stirred at room temperature (r.t.) for 5 hours. Then the solution was adjusted to pH 2 and the remaining substrate was extracted with CH2 Cl2 to give (S)-(N-phenylacetyl)-vinyl GABA (organic layer) and (R)-γ-vinyl GABA (aqueous). Since the chemical deacylation of (S)-(N-phenylacetyl)-vinyl GABA under acid conditions results in the formation of byproducts the same enzyme was used for the deacylation of (S)-(N-phenylacetyl)-vinyl GABA. To achieve an effective hydrolysis, a larger amount of Eupergit-PA (1.5 g), higher reaction temperature (45° C.), and longer reaction time (2 days) were used. When the reaction was complete (HPLC) the Eupergit-PA was filtered off and phenylacetic acid was extracted with CH2 Cl2 from acidic solution (pH 2). The aqueous solution of both (R)- and (S)-γ-vinyl GABA were subjected to ion-exchange chromatography (Dowex 1×2- 100 (OH-)) followed by lyophilization. The enamtiomers of γ-ethynyl GABA and γ-allenyl GABA were prepared by the same procedure (Table 1).
^b [S] = 50 mm; pH 7.8:25° C.
^f The E values were calculated from the yields and the ee's of the
(R)enantiomers (C. S. Chen, et al., J. Am. Chem. Soc., 104, 7294 (1982)).

[1] = system: experimentally-induced seizures; conditions: compared with (S)-counterpart or racemic compound; cited from earlier work
[2] = which enantiomer is active; cited from earlier work
GABA-T = conditions: known to elevate brain levels of GABA; cited from earlier work

Chain of penicillin acylase (P06875 290-846): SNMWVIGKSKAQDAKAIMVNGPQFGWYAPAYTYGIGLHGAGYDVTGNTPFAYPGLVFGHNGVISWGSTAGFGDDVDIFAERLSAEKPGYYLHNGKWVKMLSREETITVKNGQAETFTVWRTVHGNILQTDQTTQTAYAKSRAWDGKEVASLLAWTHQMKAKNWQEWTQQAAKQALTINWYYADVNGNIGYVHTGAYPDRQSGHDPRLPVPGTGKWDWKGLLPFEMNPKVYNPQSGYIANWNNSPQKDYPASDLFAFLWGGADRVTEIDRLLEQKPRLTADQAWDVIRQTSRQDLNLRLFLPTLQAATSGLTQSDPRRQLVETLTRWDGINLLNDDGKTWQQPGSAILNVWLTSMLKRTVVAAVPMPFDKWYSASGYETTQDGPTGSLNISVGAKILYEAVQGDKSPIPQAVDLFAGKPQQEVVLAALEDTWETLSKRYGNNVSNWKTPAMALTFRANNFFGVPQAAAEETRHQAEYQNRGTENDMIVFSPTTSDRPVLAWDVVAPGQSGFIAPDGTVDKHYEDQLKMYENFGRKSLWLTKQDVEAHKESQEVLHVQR
Chain of penicillin acylase (P06875 27-235): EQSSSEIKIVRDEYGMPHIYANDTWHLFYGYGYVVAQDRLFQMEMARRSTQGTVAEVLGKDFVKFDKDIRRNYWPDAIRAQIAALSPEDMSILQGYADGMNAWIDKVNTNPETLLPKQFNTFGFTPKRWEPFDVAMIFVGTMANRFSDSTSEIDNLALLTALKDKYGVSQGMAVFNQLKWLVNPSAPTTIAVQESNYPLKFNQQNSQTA

Row | SMILES | E (penicillin acylase) | Reaction rate (penicillin acylase) [%] | inhibition of GABA-T (GABA-T) | other results
1 | C=C=CC(CCC(=O)O)NC(=O)Cc1ccccc1 (racemic) [Allenyl] | 20 | 46 |  | 
2 | C#CC(CCC(=O)O)NC(=O)Cc1ccccc1 (racemic) [Ethynyl] | > 100 | 100 |  | 
3 | C=CC(CCC(=O)O)NC(=O)Cc1ccccc1 (racemic) [Vinyl, (N-phenylacetyl)-vinyl GABA] | 17 | 39 |  | 
4 | C#C[C@H](N)CCC(=O)O [(R)-γ-ethynyl GABA] |  |  |  | activity as an anticonvulsant agent [1]: more active
5 | C=C=CC(N)CCC(=O)O (stereo not drawn) [γ-allenyl GABA, 4-amino-hepta-5,6-dienoic acid] |  |  | irreversible inhibitors | biological activity [2]: resides in the (S)-enantiomers
6 | C#CC(N)CCC(=O)O (stereo not drawn) [γ-ethynyl GABA, 4-aminohex-5-ynoic acid] |  |  | irreversible inhibitors | 
7 | C=CC(N)CCC(=O)O (stereo not drawn) [γ-vinyl GABA, 4-aminohex-5-enoic acid] |  |  | irreversible inhibitors | biological activity [2]: resides in the (S)-enantiomers
